Test results published in patent US20130116263A1, “PAK INHIBITORS FOR THE TREATMENT OF CELL PROLIFERATIVE DISORDERS” (AFRAXIS, INC., priority 2011, published 2013).

Tests used:
Assay type in all cases: biochemical
PAK2 (PAK65) = PAK2 (PAK65) (Homo sapiens, UniProt Q13177); assay: In vitro PAK inhibition assay (Z'-LYTE, SelectScreen), PAK2; details: read-out: PAK2 IC50
Description: (§1) Compounds are screened in 1% DMSO (final) in the well. For 10 point titrations, 3-fold serial dilutions are conducted. All Peptide/Kinase Mixtures are diluted to a 2× working concentration in the appropriate Kinase Buffer
The 2×PAK2 (PAK65)/Ser/Thr 20 mixture is prepared in 50 mM HEPES pH 7.5, 0.01% BRIJ-35, 10 mM MgCl2, 1 mM EGTA. The final 10 μL Kinase Reaction consists of 0.29-6 ng PAK2 (PAK65) and 2 μM Ser/Thr 20 in 50 mM HEPES pH 7.5, 0.01% BRIJ-35, 10 mM MgCl2, 1 mM EGTA.
(§2) 1. Add the following solutions to a well in a 384-well plate: • 2.5 μL of 4× Test Compound OR (100 nL 100× Test Compound plus 2.4 μL kinase buffer) • 5 μL of 2× Peptide/Kinase (PAK) Mixture • 2.5 μL of 4×ATP Solution
(§3) 3. Incubate the PAK Kinase Reaction at room temperature for 60-minutes
(§4) 4. Add 5 μL of Development Reagent Solution to each well
(§5) 6. Incubate the Development Reaction for 60-minutes
(§6) 7. Determine the fluorescence using a fluorescence plate reader
(§7) SelectScreen® Kinase Profiling Service uses XLfit from IDBS.
(§8) The representative IC50 value with a known inhibitor for each kinase was determined at the ATP bin nearest to the ATP Km app.

PAK1 = PAK1 (Homo sapiens, UniProt Q13153); assay: In vitro PAK inhibition assay (Z'-LYTE, SelectScreen), PAK1; details: read-out: PAK1 IC50
Description: as §1
The 2×PAK1/Ser/Thr 19 mixture is prepared in 50 mM HEPES pH 7.5, 0.01% BRIJ-35, 10 mM MgCl2, 1 mM EGTA.
as §2, §3, §4, §5, §6, §7, §8

PAK3 = PAK3 (Homo sapiens, UniProt O75914); assay: In vitro PAK inhibition assay (Z'-LYTE, SelectScreen), PAK3; details: read-out: PAK3 IC50
Description: as §1
The 2×PAK3/Ser/Thr 20 mixture is prepared in 50 mM HEPES pH 7.5, 0.01% BRIJ-35, 10 mM MgCl2, 1 mM EGTA.
as §2, §3, §4, §5, §6, §7, §8

PAK4 = PAK4 (Homo sapiens, UniProt O96013); assay: In vitro PAK inhibition assay (Z'-LYTE, SelectScreen), PAK4
Description: as §1
The 2×PAK-4/Ser/Thr 20 mixture is prepared in 50 mM HEPES pH 7.5, 0.01% BRIJ-35, 10 mM MgCl2, 1 mM EGTA. The final 10 μL Kinase Reaction consists of 0.1-0.75 ng PAK-4 and 2 μM Ser/Thr 20 in 50 mM HEPES pH 7.5, 0.01% BRIJ-35, 10 mM MgCl2, 1 mM EGTA. After the 1 hour Kinase Reaction incubation, 5 μL of a 1:256 dilution of Development Reagent A is added.
as §2, §3, §4, §5, §6
SelectScreen® Kinase Profiling Service uses XLfit from IDBS. The dose response curve is curve fit to model number 205 (sigmoidal dose-response model).
The table below provides specifications and data around each kinase. The representative IC50 value with a known inhibitor for each kinase was determined at the ATP bin nearest to the ATP Km app.

Chain of PAK4 (O96013 whole entry): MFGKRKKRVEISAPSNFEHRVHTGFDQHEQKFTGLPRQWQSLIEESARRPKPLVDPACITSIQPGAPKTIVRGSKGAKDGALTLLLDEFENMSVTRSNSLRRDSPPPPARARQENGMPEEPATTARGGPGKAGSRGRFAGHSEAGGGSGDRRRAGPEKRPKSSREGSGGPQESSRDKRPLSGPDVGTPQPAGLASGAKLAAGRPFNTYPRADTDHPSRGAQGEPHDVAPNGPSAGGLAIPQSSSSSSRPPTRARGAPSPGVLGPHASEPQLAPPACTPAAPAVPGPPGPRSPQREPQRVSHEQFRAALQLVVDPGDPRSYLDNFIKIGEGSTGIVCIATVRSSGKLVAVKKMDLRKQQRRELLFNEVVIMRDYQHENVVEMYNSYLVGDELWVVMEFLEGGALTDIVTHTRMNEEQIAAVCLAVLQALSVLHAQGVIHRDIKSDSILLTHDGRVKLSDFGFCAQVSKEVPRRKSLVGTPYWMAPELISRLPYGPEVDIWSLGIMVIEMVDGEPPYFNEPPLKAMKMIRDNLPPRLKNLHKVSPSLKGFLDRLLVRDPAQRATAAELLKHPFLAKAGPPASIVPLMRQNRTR
Chain of PAK2 (PAK65) (Q13177 whole entry): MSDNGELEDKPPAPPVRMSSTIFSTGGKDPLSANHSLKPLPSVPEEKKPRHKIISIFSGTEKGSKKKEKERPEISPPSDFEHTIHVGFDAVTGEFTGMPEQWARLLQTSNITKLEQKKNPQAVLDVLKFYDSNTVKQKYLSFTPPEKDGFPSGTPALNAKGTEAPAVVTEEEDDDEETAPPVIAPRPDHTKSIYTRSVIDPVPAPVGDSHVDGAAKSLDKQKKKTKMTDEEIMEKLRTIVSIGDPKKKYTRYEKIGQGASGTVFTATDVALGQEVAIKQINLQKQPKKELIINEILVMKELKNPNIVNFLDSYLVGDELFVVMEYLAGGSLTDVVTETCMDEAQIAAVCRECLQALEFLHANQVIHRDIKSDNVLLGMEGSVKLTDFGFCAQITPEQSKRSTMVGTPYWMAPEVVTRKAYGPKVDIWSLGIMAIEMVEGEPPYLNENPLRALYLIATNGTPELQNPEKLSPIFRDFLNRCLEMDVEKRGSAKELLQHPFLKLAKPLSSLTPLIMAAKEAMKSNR
Chain of PAK1 (Q13153 whole entry): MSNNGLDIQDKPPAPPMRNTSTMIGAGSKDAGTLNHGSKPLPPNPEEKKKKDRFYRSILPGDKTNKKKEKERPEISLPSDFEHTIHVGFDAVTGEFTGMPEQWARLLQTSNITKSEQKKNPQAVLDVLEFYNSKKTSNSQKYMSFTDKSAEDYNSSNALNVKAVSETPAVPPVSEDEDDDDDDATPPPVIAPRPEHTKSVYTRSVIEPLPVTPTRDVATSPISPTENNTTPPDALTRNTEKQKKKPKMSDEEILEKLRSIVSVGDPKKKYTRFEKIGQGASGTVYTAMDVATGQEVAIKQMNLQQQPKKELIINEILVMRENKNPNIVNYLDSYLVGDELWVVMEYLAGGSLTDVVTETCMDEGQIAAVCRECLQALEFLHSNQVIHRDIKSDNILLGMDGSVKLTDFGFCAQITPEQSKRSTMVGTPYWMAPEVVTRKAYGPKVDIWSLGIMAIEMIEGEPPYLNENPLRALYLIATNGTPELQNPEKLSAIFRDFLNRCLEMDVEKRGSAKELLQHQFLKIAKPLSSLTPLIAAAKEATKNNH
Chain of PAK3 (O75914 1-544 isoform O75914-2): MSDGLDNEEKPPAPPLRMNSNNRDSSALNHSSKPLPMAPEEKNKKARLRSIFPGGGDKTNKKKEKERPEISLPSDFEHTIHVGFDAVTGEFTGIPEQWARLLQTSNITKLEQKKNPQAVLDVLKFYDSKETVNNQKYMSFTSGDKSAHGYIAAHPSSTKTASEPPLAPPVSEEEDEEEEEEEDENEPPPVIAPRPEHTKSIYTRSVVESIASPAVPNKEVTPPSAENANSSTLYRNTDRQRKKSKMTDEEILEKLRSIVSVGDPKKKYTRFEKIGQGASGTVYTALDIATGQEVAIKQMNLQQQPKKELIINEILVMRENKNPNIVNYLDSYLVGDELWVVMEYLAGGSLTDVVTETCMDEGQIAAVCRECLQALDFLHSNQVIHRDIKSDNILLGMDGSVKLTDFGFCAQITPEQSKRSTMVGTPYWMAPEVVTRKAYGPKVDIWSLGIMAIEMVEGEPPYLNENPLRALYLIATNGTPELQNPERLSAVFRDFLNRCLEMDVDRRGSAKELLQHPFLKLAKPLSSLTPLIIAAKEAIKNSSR

SMILES | IC50 (PAK2 (PAK65)) [nM] | IC50 (PAK1) [nM] | IC50 (PAK3) [nM] | IC50 (PAK4) [nM]
Cc1cnc(-c2ccc(-c3cc4cnc(NC5CCOCC5)nc4[nH]c3=O)c(Cl)c2)s1 [Example 14] | > 5000 | > 5000 | 50 to 500 | > 5000
COCCCn1c(=O)c(-c2ccc(-c3cncc(C)n3)cc2Cl)cc2cnc(N[C@@H]3CCOC3)nc21 [Example 64] | < 50 | < 50 | 50 to 500 | > 5000
CCn1c(=O)c(-c2ccc(-c3cncc(C)c3)cc2Cl)cc2cnc(N[C@@H]3CCOC3)nc21 [Example 61] | 50 to 500 | 50 to 500 | 500 to 5000 | > 5000
CCn1c(=O)c(-c2ccc(-c3ccc(C)nc3)cc2Cl)cc2cnc(N[C@@H]3CCOC3)nc21 [Example 56] | 50 to 500 | 500 to 5000 | > 5000 | > 5000
CCn1c(=O)c(-c2ccc(-c3cncc(C)n3)cc2Cl)cc2cnc(N[C@H]3CCCNC3=O)nc21 [Example 69] | > 5000 | > 5000 | > 5000 | > 5000
CCn1c(=O)c(-c2ccc(-c3cncc(C)n3)cc2Cl)cc2cnc(NC3CCOCC3)nc21 [Example 7] | < 50 | < 50 | 50 to 500 | > 5000
O=c1c(-c2ccc(-c3ccncn3)cc2Cl)cc2cnc(NC3CCOCC3)nc2n1Cc1ccccc1C(F)(F)F [Example 23] | 50 to 500 | 50 to 500 | 50 to 500 | > 5000
Cc1nc(-c2ccc(-c3cc4cnc(NC5CCOCC5)nc4[nH]c3=O)c(Cl)c2)no1 [Example 11] | 50 to 500 | 50 to 500 | 50 to 500 | > 5000
CCn1c(=O)c(-c2ccc(-c3noc(C)n3)cc2Cl)cc2cnc(N[C@@H]3CCOC3)nc21 [Example 54] | 50 to 500 | 50 to 500 | 50 to 500 | > 5000
CCNc1ncc2cc(-c3ccc(-c4nccnc4C)cc3Cl)c(=O)n(CC)c2n1 [Example 6] | 50 to 500 | 50 to 500 | 50 to 500 | > 5000
CCn1c(=O)c(-c2ccc(-c3cncc(C)n3)cc2Cl)cc2cnc(NC3CCOC3)nc21 (stereo not drawn) [Example 29] | < 50 | 50 to 500 | 50 to 500 | > 5000
Cc1cncc(-c2ccc(-c3cc4cnc(NC5CCOCC5)nc4n(Cc4ccccc4F)c3=O)c(Cl)c2)n1 [Example 36] | 50 to 500 | 50 to 500 | 50 to 500 | > 5000
CCn1c(=O)c(-c2ccc(-c3nccnc3C)cc2Cl)cc2cnc(NC3CCOC(C)C3)nc21 (stereo not drawn) [Example 32] | < 50 | 50 to 500 | 50 to 500 | > 5000
COCCn1c(=O)c(-c2ccc(-c3cnccn3)cc2Cl)cc2cnc(NC3CCOC3)nc21 (stereo not drawn) [Example 53] | 50 to 500 | 50 to 500 | 500 to 5000 | > 5000
CCn1c(=O)c(-c2ccc(-c3cnccc3C)cc2Cl)cc2cnc(N[C@@H]3CCOC3)nc21 [Example 49] | 500 to 5000 | 50 to 500 | 500 to 5000 | > 5000
CCn1c(=O)c(-c2ccc(-c3cccnc3F)cc2Cl)cc2cnc(N[C@H]3CCOC3)nc21 [Example 41] | 50 to 500 | < 50 | 50 to 500 | > 5000
CCn1c(=O)c(-c2ccc(-c3cncc(C)n3)cc2Cl)cc2cnc(N[C@H]3CCOC3)nc21 [Example 27] | < 50 | 50 to 500 | 50 to 500 | > 5000
CCn1c(=O)c(-c2ccc(-c3ccncc3C)cc2Cl)cc2cnc(NC3CCOCC3)nc21 [Example 46] | 500 to 5000 | 500 to 5000 | 500 to 5000 | > 5000
CCn1c(=O)c(-c2ccc(-c3nccnc3C)cc2Cl)cc2cnc(NC3CCOC(C)(C)C3)nc21 (racemic) [Example 30] | < 50 | < 50 | < 50 | > 5000
Cc1nccnc1-c1ccc(-c2cc3cnc(NC4CCOCC4)nc3n(Cc3ccccc3)c2=O)c(Cl)c1 [Example 16] | < 50 | < 50 | 50 to 500 | > 5000

More lines, now with the values ahead:

IC50 (PAK2 (PAK65)) [nM] | IC50 (PAK1) [nM] | IC50 (PAK3) [nM] | IC50 (PAK4) [nM] | SMILES
< 50 | < 50 | 50 to 500 | > 5000 | Cc1cncc(-c2ccc(-c3cc4cnc(N[C@H]5CCOC5)nc4n(CCCN(C)C)c3=O)c(Cl)c2)n1 [Example 102]
< 50 | < 50 | < 50 | > 5000 | CCn1c(=O)c(-c2ccc(-c3cncc(C)n3)cc2Cl)cc2cnc(N[C@H]3CC[C@H](CN)CC3)nc21 [Example 87]
< 50 | 50 to 500 | 50 to 500 | > 5000 | Cc1cncc(-c2ccc(-c3cc4cnc(N[C@@H]5CCOC5)nc4n(CCCN)c3=O)c(Cl)c2)n1 [Example 97]
< 50 | < 50 | 50 to 500 | > 5000 | CCn1c(=O)c(-c2ccc(-c3nccnc3C)cc2Cl)cc2cnc(NCCC3CCNCC3)nc21 [Example 136]
50 to 500 | 50 to 500 | 500 to 5000 | > 5000 | CCN(CC)CCn1c(=O)c(-c2ccc(-c3cncc(C)n3)cc2Cl)cc2cnc(N[C@@H]3CCOC3)nc21 [Example 96]
50 to 500 | 50 to 500 | 50 to 500 | > 5000 | Cc1cncc(-c2ccc(-c3cc4cnc(NC5CCOCC5)nc4n(C4CCCC4)c3=O)c(Cl)c2)n1 [Example 89]
50 to 500 | 50 to 500 | 50 to 500 | > 5000 | Cc1nccnc1-c1ccc(-c2cc3cnc(NC4CCOCC4)nc3n(C3CCCC3)c2=O)c(Cl)c1 [Example 88, 6-(2-chloro-4-(3-methylpyrazin-2-yl)phenyl)-8-cyclopentyl-2-((tetrahydro-2H-pyran-4-yl)amino)pyrido[2,3-d]pyrimidin-7(8H)-one]
50 to 500 | 50 to 500 | 500 to 5000 | > 5000 | CCn1c(=O)c(-c2ccc(-c3nccnc3C)cc2Cl)cc2cnc(NC3CCS(=O)(=O)CC3)nc21 [Example 75]
< 50 | < 50 | 50 to 500 | > 5000 | CCn1c(=O)c(-c2ccc(-c3noc(C)n3)cc2Cl)cc2cnc(NCCC3CCN(C)CC3)nc21 [Example 93]
< 50 | < 50 | 50 to 500 | > 5000 | CCn1c(=O)c(-c2cc(C)c(-c3cncc(C)n3)cc2Cl)cc2cnc(N[C@@H]3CCOC3)nc21 [Example 71]
50 to 500 | 50 to 500 | 500 to 5000 | > 5000 | Cc1cncc(-c2ccc(-c3cc4cnc(N[C@@H]5CCOC5)nc4n(CCN4CCCC4)c3=O)c(Cl)c2)n1 [Example 104]
< 50 | 50 to 500 | 50 to 500 | > 5000 | Cc1nccnc1-c1ccc(-c2cc3cnc(N[C@@H]4CCOC4)nc3n(Cc3cccnc3)c2=O)c(Cl)c1 [Example 122, (R)-6-(2-chloro-4-(3-methylpyrazin-2-yl)phenyl)-8-(pyridin-3-ylmethyl)-2-((tetrahydrofuran-3-yl)amino)pyrido[2,3-d]pyrimidin-7(8H)-one]
< 50 | < 50 | 50 to 500 | > 5000 | CCn1c(=O)c(-c2ccc(-c3nccnc3C)cc2Cl)cc2cnc(NCCC3CCN(C)CC3)nc21 [Example 91]
50 to 500 | 50 to 500 | 50 to 500 | > 5000 | Cc1cncc(-c2ccc(-c3cc4cnc(NC5CC5)nc4n(CCN)c3=O)c(Cl)c2)n1 [Example 111]
< 50 | < 50 | 50 to 500 | > 5000 | CCn1c(=O)c(-c2cc(C)c(-c3cncc(C)n3)cc2Cl)cc2cnc(N[C@H]3CCOC3)nc21 [Example 72]
< 50 | < 50 | 50 to 500 | > 5000 | CCn1c(=O)c(-c2ccc(-c3nccnc3C)cc2Cl)cc2cnc(N[C@@H]3CCOC(C)(C)C3)nc21 (stereo in doubt) [Example 76]
